The target in the experiment is T1, TYK2 (Homo sapiens, UniProt P29597).
T1 construct: Degradation of TYK2 in cells was quantitatively measured using Meso Scale Discovery (MSD) technology; endogenous in cells; host or cells: OCI-LY10
The experiment can be described thus: TYK2 MSD degradation in OCI-LY10 cells. Format: cell-based. The note with it: TYK2 degradation in OCI-LY10 cells, 4 to 24 hours incubation; for DC50: read-out: TYK2 MSD OCI-LY10 Rel-DC50. As for the experimental part:
Example 7. TYK2 MSD Degradation
Degradation of TYK2 in cells was quantitatively measured using Meso Scale Discovery (MSD) technology. OCI-LY10 cells were seeded in 96-well plates with a density of 0.4 million cells per well in 100 μl fresh media. Compounds were then added to the assay plates with a final top concentration of 1 to 10 μM in a 1:3 dilution series with total of 9 doses. The assay plates were then incubated for 4 to 24 hours at 37° C. under […]. The assay plates were then centrifuged for 5 minutes, and the cell pellets were treated with 100 μl/well RIPA lysis buffer (Boston Bioproducts, BP-115D) with protease and phosphatase inhibitors (Roche, 05892791001 and 04906837001). To prepare MSD assay plates (MSD, L15XA), the plates were coated with the capture antibody (Santa Cruz Biotechnology, SC-5271) in PBS, at 40 μl/well. The plates were then incubated overnight at 4° C., washed 3 times with 150 μl/well TBST buffer (Cell Signaling Technology, 9997S) and blocked with 150 μl/well blocking buffer (MSD, R93BA-4). Cell lysates were then added to MSD assay plates and the plates were incubated at room temperature for 1 hour. The plates were then washed 3 times with 150 μl/well TBST buffer and 25 μl/well primary detection antibody (Cell Signaling Technology, #9312). The assay plates were then incubated at room temperature for 1 hour, washed 3 times with 150 μl/well TBST buffer, and 25 μl/well secondary detection antibody, SULFO-TAG anti-rabbit antibody (MSD, R32AB-1) were added. The assay plates were then incubated at room temperature for 1 hour, washed 3 times with 150 μl/well TB ST buffer, and 150 μl/well MSD reading buffer (MSD, R92TC-2) were added. The plates were then analyzed by an MSD reader. The data was analyzed by GraphPad Prism and the dose dependent TYK2 degradation was fit using the four-parameter inhibitor vs. response nonlinear regression.
The letter codes for TYK2 DC50 include: A (<1 nM); B (i to <10 nM); C (10 to 100 nM); D (>100 nM); and E (not tested). The letter codes for TYK2 Dmax % include: A (>90%); B (90 to >75%); C (75 to 50%); D (<50%); and E (not tested).

Structures are written as SMILES.

T1 sequence (P29597 whole entry): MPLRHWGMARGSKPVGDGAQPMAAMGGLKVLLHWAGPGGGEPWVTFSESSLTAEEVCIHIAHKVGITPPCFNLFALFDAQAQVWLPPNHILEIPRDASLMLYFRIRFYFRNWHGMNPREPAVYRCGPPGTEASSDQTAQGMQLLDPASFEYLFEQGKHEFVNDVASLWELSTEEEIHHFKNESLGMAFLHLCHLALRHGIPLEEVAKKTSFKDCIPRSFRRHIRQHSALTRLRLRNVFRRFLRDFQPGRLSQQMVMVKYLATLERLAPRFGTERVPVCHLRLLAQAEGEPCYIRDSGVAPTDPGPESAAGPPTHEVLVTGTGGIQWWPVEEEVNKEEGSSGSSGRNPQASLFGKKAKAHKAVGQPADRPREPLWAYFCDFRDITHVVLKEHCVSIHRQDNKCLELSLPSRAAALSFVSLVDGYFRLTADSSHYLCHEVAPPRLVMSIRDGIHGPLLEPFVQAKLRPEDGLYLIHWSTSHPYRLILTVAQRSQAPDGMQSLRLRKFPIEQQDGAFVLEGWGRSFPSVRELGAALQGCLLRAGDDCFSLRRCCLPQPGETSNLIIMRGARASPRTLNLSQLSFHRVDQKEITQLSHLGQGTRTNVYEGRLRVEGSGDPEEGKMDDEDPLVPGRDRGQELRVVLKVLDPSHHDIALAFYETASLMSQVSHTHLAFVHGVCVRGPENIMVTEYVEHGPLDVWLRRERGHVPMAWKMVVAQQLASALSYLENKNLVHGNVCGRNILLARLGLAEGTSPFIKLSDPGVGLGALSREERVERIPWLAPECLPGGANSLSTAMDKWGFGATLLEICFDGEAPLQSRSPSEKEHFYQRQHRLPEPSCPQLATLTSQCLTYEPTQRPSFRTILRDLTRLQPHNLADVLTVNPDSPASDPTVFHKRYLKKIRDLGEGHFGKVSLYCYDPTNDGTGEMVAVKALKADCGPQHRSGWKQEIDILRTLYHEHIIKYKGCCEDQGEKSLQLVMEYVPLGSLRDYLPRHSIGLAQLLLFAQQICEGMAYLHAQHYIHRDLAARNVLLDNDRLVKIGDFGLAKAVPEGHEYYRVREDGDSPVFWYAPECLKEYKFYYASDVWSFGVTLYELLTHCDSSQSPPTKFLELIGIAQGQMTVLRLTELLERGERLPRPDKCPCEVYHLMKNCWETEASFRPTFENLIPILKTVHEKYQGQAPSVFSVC

For `CNc1cc(N2CCc3c(CN4CCC5(CC4)CCN(C(=O)c4ccc(Cl)c(N6CCC(=O)NC6=O)c4)CC5)cccc32)nn2c(C(=O)NC3CC3)cnc12` [I-58], the “TYK2 MSD OCI-LY10 Dmax %” value is listed as “D (D (<50%))” and the 50% degradation concentration (DC50) is > 100 nM.

For the molecule `CNc1cc(N2CCc3c(C4CCCN(CC5CC6(C5)CN(c5ccc7c(c5)n(C)c(=O)n7C5CCC(=O)NC5=O)C6)C4)cccc32)nn2c(C(=O)NC3CC3)cnc12` (stereo not drawn) [I-59], the “TYK2 MSD OCI-LY10 Dmax %” value is reported as “D (D (<50%))” and the DC50 was < 1 nM.

Take `CNc1cc(N2CCc3c(C4CCN(CC5CC6(CCN(C(=O)c7ccc(Cl)c(N8CCC(=O)NC8=O)c7)CC6)C5)CC4)cccc32)nn2c(C(=O)NC3CC3)cnc12` [I-60]: the “TYK2 MSD OCI-LY10 Dmax %” value was “C (C (75 to 50%))” and the DC50 was < 10 nM.

Turning to `CNc1cc(N2CCc3c(-c4ccc(CN5CCC(N6CCN(c7ccc8c(c7)n(C)c(=O)n8C7CCC(=O)NC7=O)CC6)C(F)(F)C5)cn4)cc(F)cc32)nn2c(C(=O)NC3CC3)cnc12` (stereo not drawn) [I-61], the “TYK2 MSD OCI-LY10 Dmax %” value was “B (B (90 to >75%))” and the half-maximal degradation concentration (DC50) was < 10 nM.

With `CNc1cc(N2CCc3c(CN4CCC(N5CCC(N6CCN(c7ccc8c(c7)n(C)c(=O)n8C7CCC(=O)NC7=O)CC6)CC5)C(F)(F)C4)cccc32)nn2c(C(=O)NC3CC3)cnc12` (stereo not drawn) [I-62], the “TYK2 MSD OCI-LY10 Dmax %” value is reported as “B (B (90 to >75%))” and the DC50 was < 1 nM.

In the case of `CNc1cc(N2CCc3c(-c4ccc(CN5CC6(CCN(C(=O)c7ccc(C)c(N8CCC(=O)NC8=O)c7)CC6)C5)cn4)cccc32)nn2c(C(=O)N[C@@H]3C[C@@H]3F)cnc12` [I-63], the “TYK2 MSD OCI-LY10 Dmax %” value is recorded as “A (A (>90%))” and the DC50 was < 1 nM.

On to `CNc1cc(N2CCc3c(-c4ccc(CN5CC6(CCN(C(=O)c7ccc(OC)c(N8CCC(=O)NC8=O)c7)CC6)C5)cn4)cccc32)nn2c(C(=O)N[C@@H]3C[C@@H]3F)cnc12` [I-64], for which the “TYK2 MSD OCI-LY10 Dmax %” value is recorded as “A (A (>90%))” and the DC50 is < 1 nM.

Turning to `CNc1cc(N2CCc3c(-c4ccc(CN5CCC6(CC5)CCN(c5cc(Cl)cc(NC7CCC(=O)NC7=O)c5)CC6)cn4)cccc32)nn2c(C(=O)NC3CC3)cnc12` (stereo not drawn) [I-65], the “TYK2 MSD OCI-LY10 Dmax %” value was “D (D (<50%))” and the DC50 is > 100 nM.

Take `CNc1cc(N2CCc3c(-c4ccc(CN5CCC6(CC5)CCN(c5ccc(Cl)c(NC7CCC(=O)NC7=O)c5)CC6)cn4)cccc32)nn2c(C(=O)NC3CC3)cnc12` (stereo not drawn) [I-66]: the “TYK2 MSD OCI-LY10 Dmax %” value was “D (D (<50%))” and the DC50 is > 100 nM.

For the molecule `CNc1cc(N2CCc3c(-c4ccc(CN5CC6(CCN(C(=O)c7ccc(Cl)c(N8CCC(=O)NC8=O)c7)CC6(F)F)C5)cn4)cccc32)nn2c(C(=O)N[C@@H]3C[C@@H]3F)cnc12` [I-67], the “TYK2 MSD OCI-LY10 Dmax %” value was “A (A (>90%))” and the DC50 was < 1 nM.

`CNc1cc(N2CCc3c(-c4cc(CN5CCN(c6ccc7c(c6)n(C)c(=O)n7C6CCC(=O)NC6=O)CC5)ccn4)cccc32)nn2c(C(=O)NC3CC3)cnc12` (stereo not drawn) [I-68]: the “TYK2 MSD OCI-LY10 Dmax %” value is “B (B (90 to >75%))” and the DC50 was < 1 nM.

Consider `CNc1cc(N2CCc3c(-c4ccc(CN5CCC(N6CCN(c7ccc8c(c7F)n(C)c(=O)n8C7CCC(=O)NC7=O)CC6)C(F)(F)C5)cn4)cccc32)nn2c(C(=O)NC3CC3)cnc12` (stereo not drawn) [I-69], for which the “TYK2 MSD OCI-LY10 Dmax %” value is recorded as “B (B (90 to >75%))” and the DC50 was < 10 nM.

Turning to `CNc1cc(N2CCc3c(-c4cc(CN5CCN(c6ccc7c(c6F)n(C)c(=O)n7C6CCC(=O)NC6=O)CC5)ccn4)cccc32)nn2c(C(=O)NC3CC3)cnc12` (stereo not drawn) [I-71], the “TYK2 MSD OCI-LY10 Dmax %” value is recorded as “B (B (90 to >75%))” and the DC50 is < 1 nM.

In the case of `CNc1cc(N2CCc3c(CN4CCC(N5CC(N6CCN(c7ccc8c(c7)n(C)c(=O)n8C7CCC(=O)NC7=O)CC6)C5)C(F)(F)C4)cccc32)nn2c(C(=O)N[C@@H]3C[C@@H]3F)cnc12` (stereo partly drawn) [I-72], the “TYK2 MSD OCI-LY10 Dmax %” value is reported as “B (B (90 to >75%))” and the DC50 is < 1 nM.

With `CNc1cc(N2CCc3c(-c4ccc(CN5CC6(CCN(C(=O)c7ccc(Cl)c(N8CCC(=O)NC8=O)c7)CC6)C5)cc4)cccc32)nn2c(C(=O)N[C@@H]3C[C@@H]3F)cnc12` [I-73], the “TYK2 MSD OCI-LY10 Dmax %” value is recorded as “C (C (75 to 50%))” and the DC50 was < 10 nM.

As for `CNc1cc(N2CCc3c(-c4ccc(CN5CCC6(CC5)CCN(c5ccc(N7CCC(=O)NC7=O)c(Cl)c5)CC6)cn4)cccc32)nn2c(C(=O)N[C@@H]3C[C@@H]3F)cnc12` [I-74], the “TYK2 MSD OCI-LY10 Dmax %” value is “D (D (<50%))” and the DC50 is < 10 nM.

Turning to `CNc1cc(N2CCc3c(-c4ccc(OC5CCC6(CC5)CCN(C(=O)c5ccc(Cl)c(N7CCC(=O)NC7=O)c5)CC6)cn4)cccc32)nn2c(C(=O)N[C@@H]3C[C@@H]3F)cnc12` [I-75], the “TYK2 MSD OCI-LY10 Dmax %” value is recorded as “C (C (75 to 50%))” and the DC50 was < 10 nM.

As to `CNc1cc(N2CCc3c(-c4ccc(OC5CC6(CCN(C(=O)c7ccc(Cl)c(N8CCC(=O)NC8=O)c7)CC6)C5)cn4)cccc32)nn2c(C(=O)N[C@@H]3C[C@@H]3F)cnc12` [I-76], the “TYK2 MSD OCI-LY10 Dmax %” value was “B (B (90 to >75%))” and the DC50 is < 1 nM.

Regarding `CNc1cc(N2CCc3c(-c4ccc(CN5CCC6(CC5)CCN(c5ccc(C7CCC(=O)NC7=O)c(Cl)c5)CC6)cn4)cccc32)nn2c(C(=O)N[C@@H]3C[C@@H]3F)cnc12` (stereo partly drawn) [I-77], the “TYK2 MSD OCI-LY10 Dmax %” value is on record as “D (D (<50%))” and the DC50 was < 10 nM.

Consider `CNc1cc(N2CCc3c(-c4cc(CN5CCN(C(=O)c6ccc(Cl)c(N7CCC(=O)NC7=O)c6)CC5)ccn4)cccc32)nn2c(C(=O)N[C@@H]3C[C@@H]3F)cnc12` [I-78], for which the “TYK2 MSD OCI-LY10 Dmax %” value is “D (D (<50%))” and the DC50 was < 10 nM.

Take `CNc1cc(N2CCc3c(-c4cc(CN5CC6(CCN(C(=O)c7ccc(Cl)c(N8CCC(=O)NC8=O)c7)CC6)C5)ccn4)cccc32)nn2c(C(=O)N[C@@H]3C[C@@H]3F)cnc12` [I-79]: the “TYK2 MSD OCI-LY10 Dmax %” value is on record as “D (D (<50%))” and the DC50 is < 10 nM.

Take `CNc1cc(N2CCc3c(-c4cc(CN5CCN(c6ccc7c(c6F)n(C)c(=O)n7C6CCC(=O)NC6=O)CC5)ccn4)cccc32)nn2c(C(N)=O)cnc12` (stereo not drawn) [I-81]: the “TYK2 MSD OCI-LY10 Dmax %” value was “B (B (90 to >75%))” and the DC50 is < 1 nM.

`CNc1cc(N2CCc3c(-c4ccc(CN5CCC6(CC5)CCN(C(=O)c5ccc(Cl)c(N7CCC(=O)NC7=O)c5)C6)cn4)cccc32)nn2c(C(=O)N[C@H]3C[C@H]3F)cnc12` [I-82]: the “TYK2 MSD OCI-LY10 Dmax %” value is recorded as “B (B (90 to >75%))” and the DC50 is < 1 nM.

As for `CNc1cc(N2CCc3c(-c4ccc(CN5CCC(N6CCN(c7ccc(C8CCC(=O)NC8=O)c(Cl)c7)CC6)C(F)(F)C5)cn4)cccc32)nn2c(C(=O)N[C@H]3C[C@H]3F)cnc12` (stereo partly drawn) [I-83], the “TYK2 MSD OCI-LY10 Dmax %” value is reported as “D (D (<50%))” and the DC50 is < 10 nM.

As to `CNc1cc(N2CCc3c(CN4CCC(N5CCC(C6CCN(c7ccc8c(c7)n(C)c(=O)n8C7CCC(=O)NC7=O)CC6)CC5)C(F)(F)C4)cccc32)nn2c(C(=O)N[C@H]3C[C@H]3F)cnc12` (stereo partly drawn) [I-84], the “TYK2 MSD OCI-LY10 Dmax %” value was “C (C (75 to 50%))” and the 50% degradation concentration (DC50) was < 10 nM.

On to `CNc1cc(N2CCc3c(-c4ccc(CN5CCC6(CCN(C(=O)c7ccc(Cl)c(N8CCC(=O)NC8=O)c7)CC6)C5)cn4)cccc32)nn2c(C(=O)N[C@H]3C[C@H]3F)cnc12` [I-85], for which the “TYK2 MSD OCI-LY10 Dmax %” value was “B (B (90 to >75%))” and the DC50 is < 1 nM.

Regarding `CNc1cc(N2CCc3c(-c4ccc(CN5CCC(N6CCC(C#Cc7ccc8c(c7)n(C)c(=O)n8C7CCC(=O)NC7=O)CC6)C(F)(F)C5)cn4)cccc32)nn2c(C(=O)N[C@H]3C[C@H]3F)cnc12` (stereo partly drawn) [I-86], the “TYK2 MSD OCI-LY10 Dmax %” value is “C (C (75 to 50%))” and the DC50 was < 10 nM.

For the molecule `CNc1cc(N2CCc3c(-c4ccc(CN5CC6(CCN(Cc7ccc(N8CCC(=O)NC8=O)c(Cl)c7)CC6(F)F)C5)cn4)cccc32)nn2c(C(=O)N[C@H]3C[C@H]3F)cnc12` [I-87], the “TYK2 MSD OCI-LY10 Dmax %” value is recorded as “D (D (<50%))” and the DC50 is < 10 nM.

Regarding `CNc1cc(N2CCc3c(-c4ccc(N5CCN(C(=O)c6ccc(Cl)c(N7CCC(=O)NC7=O)c6)CC5)cn4)cccc32)nn2c(C(=O)N[C@@H]3C[C@@H]3F)cnc12` [I-90], the “TYK2 MSD OCI-LY10 Dmax %” value is “D (D (<50%))” and the DC50 was < 10 nM.

Take `CNc1cc(N2CCc3c(-c4ccc(CN5CCC6(CC5)CCN(C(=O)c5ccc(Cl)c(C7CCC(=O)NC7=O)c5)CC6)cn4)cccc32)nn2c(C(=O)N[C@@H]3C[C@@H]3F)cnc12` (stereo partly drawn) [I-91]: the “TYK2 MSD OCI-LY10 Dmax %” value is given as “B (B (90 to >75%))” and the DC50 was < 1 nM.

As a reminder, the DC50 is the concentration at which degradation of the target reaches its halfway point.

For the origin of these results see patent US20260125400A1, “TYK2 DEGRADERS AND USES THEREOF” (Kymera Therapeutics, Inc., priority 2023, published 2026).
